Reference: the NIST ThermoML archive (doi:10.1016/j.jct.2013.02.014)
± gives the expanded uncertainty stated by the source.

Conditions: Liquid, Falling or rolling sphere viscometry

CCCCn1cc[n+](C)c1C.O=S(=O)([N-]S(=O)(=O)C(F)(F)F)C(F)(F)F
viscosity [mPa·s]
Conditions | 10000 kPa | 15000 kPa | 25000 kPa | 50000 kPa | 75000 kPa | 100000 kPa | 125000 kPa | 150000 kPa
313.15 K | 55.9 ± 5.7 | 59.5 ± 6.1 | 67.3 ± 6.9 | 90.7 ± 9.5 | 120.9 ± 13 | 159.8 ± 17 | 210.1 ± 24 | 275 ± 32
343.15 K | 19.5 ± 2.2 | 20.5 ± 2.3 | 22.7 ± 2.5 | 28.8 ± 3.3 | 36.3 ± 4.2 | 45.5 ± 5.4 | 56.9 ± 6.8 | 70.9 ± 8.7
363.15 K | 12.4 ± 1.3 | 13 ± 1.4 | 14.3 ± 1.5 | 17.9 ± 1.9 | 22.1 ± 2.3 | 26.9 ± 2.9 | 32.4 ± 3.5 | 38.7 ± 4.2
